What was measured:
CFA-stimulated rats [1] = assay: CFA inflammatory pain model, mechanical allodynia (von Frey test); format: in vivo; parameters: key to Mechanical Allodynia, change in sensitivity compared to CFA alone / Mechanical Allodynia, significant reduction in pain behavior vs CFA alone: NS = no statistically significant change in sensitivity compared to CFA alone; + = statistically significant change in sensitivity compared to CFA alone, p < 0.05
Protocol: (§1) Response to peripheral inflammatory stimulus can be modeled by administering complete Freund's adjuvant (CFA), a suspension of desiccated mycobacterium in paraffin oil and mannide monooleate, by subcutaneous injection into the rat's footpad. The introduction of CFA to peripheral tissues leads to a rapid, sustained, inflammatory reaction in the treated tissue within 24 hours. Subcutaneous administration of CFA in the plantar region of the paw induces inflammatory pain behaviors that persist for at least 8 days. CFA treatment also leads to the accumulation of inflammatory cytokines in paw tissue at the site of injury, which, if unresolved, can lead to formation of fibrotic tissue. The extent of inflammatory response to CFA can be assessed by quantification of inflammatory cytokines in paw skin lysate, and inflammatory pain behaviors by mechanical allodynia (von Frey test) and thermal hyperalgesia (Hargreaves test).
(§2) In one study, Compound 2a was tested for its ability to reduce inflammatory pain behaviors in the CFA inflammation model. On study day 0, […] of CFA was administered subcutaneously in the plantar of the right hind paw. Animals were treated daily with Compound 2a in solution via oral gavage (PO) at doses of 1, 0.1, and 0.025 mg/kg. Treatment began before CFA injection on study day −1 and continued through study day 8.
Mechanical allodynia was measured using the von Frey test. In this test, rats were placed on a wire mesh and a series of filaments designed to deliver probing force ranging from 4 to 26 grams were applied to the mid-plantar surface of the right hind paw. Animals indicated pain response by lifting the probed paw. The minimal force required to elicit the withdrawal response was recorded as the paw withdrawal threshold (PWT). Von Frey testing was performed 1 hour after Compound 2a dosing on study day 1, 3, and 7, and was also tested pre-dosing on day 7. Statistical analysis was performed using a 1-way ANOVA with Tukey post-test. A p-value below 0.05 was considered statistically significant. Control animals stimulated with CFA but treated with only vehicle had high sensitivity to mechanical stimulation compared to normal control animals.
(§3) In another study, Compounds 1a, 5a, and 6a were similarly tested against CFA-induced inflammatory stimulation in the right hind foot for their ability to reduce pain behaviors. This study also included quantification of inflammatory cytokine expression in paw skin lysate. Inflammatory pain stimulation with CFA injection and assessment of mechanical and thermal pain behaviors were performed as described above, with the exception that only post-dose pain behavior testing is reported.
(§4) Intraplantar CFA injection occurred at day 0. Treatment with Compounds 1a, 5a, and 6a occurred at days −2, 1, 3, and 7. At day 8, the rats were terminated and cytokine levels were measured in paw skin and plasma. Tissue from paw bone, joint, and muscle were obtained for H&E staining and analysis. Cytokine levels in test compound-treated animals were compared to CFA-stimulated animals. Analytes included interleukin 4 (IL-4), tumor necrosis factor alpha (TNF-α) and interferon gamma (IFN-γ). Statistical analysis consisted of 1-way ANOVA followed by Dunnett's multiple comparisons post-test. Mechanical allodynia and thermal hyperalgesia were tested 1 hour post-dosing on days 1, 3, and 7. PWT refers to […] paw withdrawal threshold where a higher value corresponds to a higher pain threshold. PWL refers to […] paw withdrawal latency where a higher value corresponds to a higher pain threshold.

CFA-stimulated rats [2] = assay: CFA inflammatory pain model, thermal hyperalgesia (Hargreaves method); format: in vivo; parameters: key to Thermal Hyperalgesia, change in sensitivity compared to CFA alone / Thermal Hyperalgesia, significant reduction in pain behavior vs CFA alone: NS = no statistically significant change in sensitivity compared to CFA alone; + = statistically significant change in sensitivity compared to CFA alone, p < 0.05
Protocol: as §1, §2
Thermal hyperalgesia was measured using the Hargreaves method. A temperature ramp was applied to the right hind paw and the paw withdrawal latency (PWL) was recorded as a measure of sensitivity to thermal stimulation. […] Statistical analysis was performed using a 1-way ANOVA with Tukey post-test. A p-value below 0.05 was considered statistically significant.
as §3, §4

MRC-5 cells = assay: TGFβ-stimulated αSMA expression in MRC-5 cells (HTRF); format: cell-based; parameters: key to Significant reduction in αSMA via HTRF compared to TGFβ alone: NS = no statistically significant change in aSMA expression; + = p < 0.05; ++ = p < 0.01; +++ = p < 0.005; ++++ = p < 0.001; conditions: for Significant reduction in αSMA via HTRF compared to TGFβ alone: TGFβ 1 ng/ml, HGF 0.01 ng/ml, 48 h
Protocol: In this study, pulmonary-derived immortalized fibroblasts, MRC-5 cells, were cultured as a model of the early transition to fibrosis, and αSMA expression was measured using an immunodetection system driven by homogenous time-resolved fluorescence (HTRF) technology. This detection system produces a fluorescent signal in the presence of αSMA in cell lysates. Cells were grown to confluence in 96-well culture plates in complete media, and then transitioned to serum-free media for 2 hours. Next TGFβ (final 1 ng/ml in serum-free media) was added to the cells to stimulate the fibrotic transition. After 2 hours, media containing either HGF or HGF combined with one of the compounds was added to the cells. After incubation for 48 hours, cells were lysed and processed for αSMA HTRF to detect the levels of αSMA expression and compared to TGFβ-stimulated cultures. Statistical analysis consisted of 1-way ANOVA with a Dunnett's multiple comparison's post-test.

CFA-stimulated rats [3] = assay: CFA inflammatory pain model, thermal hyperalgesia (Hargreaves method); format: in vivo; parameters: key to Thermal Hyperalgesia, change in sensitivity compared to CFA alone: NS = no statistically significant change in sensitivity compared to CFA alone; + = statistically significant change in sensitivity compared to CFA alone, p < 0.05; conditions: 0.025 mg/kg PO daily; Day 3, 1 h post-dose
[4] = 0.025 mg/kg PO daily, Day 1, 1 h post-dose
[5] = 0.025 mg/kg PO daily, Day 7 post-dose
[6] = 0.025 mg/kg PO daily, Day 7 pre-dose
[7] = 0.1 mg/kg PO daily, Day 1, 1 h post-dose
[8] = 0.1 mg/kg PO daily, Day 3, 1 h post-dose
[9] = 0.1 mg/kg PO daily, Day 7 post-dose
[10] = 0.1 mg/kg PO daily, Day 7 pre-dose
[11] = 1 mg/kg PO daily, Day 1, 1 h post-dose
[12] = 1 mg/kg PO daily, Day 3, 1 h post-dose
[13] = 1 mg/kg PO daily, Day 7 post-dose
[14] = 1 mg/kg PO daily, Day 7 pre-dose

CCC(C)CN1CC2N(C(=O)c3ccc(OC(F)F)cc3)CCC(=O)N2[C@@H](C)C1=O (some centres unmarked) [Compound 2a]
Mechanical Allodynia, change in sensitivity compared to CFA alone (CFA-stimulated rats [1]; [4]): NS | Mechanical Allodynia, change in sensitivity compared to CFA alone (CFA-stimulated rats [1]; 0.025 mg/kg PO daily, Day 3, 1 h post-dose): NS | Mechanical Allodynia, change in sensitivity compared to CFA alone (CFA-stimulated rats [1]; [5]): NS | Mechanical Allodynia, change in sensitivity compared to CFA alone (CFA-stimulated rats [1]; [6]): NS | Mechanical Allodynia, change in sensitivity compared to CFA alone (CFA-stimulated rats [1]; [7]): NS | Mechanical Allodynia, change in sensitivity compared to CFA alone (CFA-stimulated rats [1]; [8]): NS | Mechanical Allodynia, change in sensitivity compared to CFA alone (CFA-stimulated rats [1]; [9]): NS | Mechanical Allodynia, change in sensitivity compared to CFA alone (CFA-stimulated rats [1]; [10]): NS | Mechanical Allodynia, change in sensitivity compared to CFA alone (CFA-stimulated rats [1]; [11]): NS | Mechanical Allodynia, change in sensitivity compared to CFA alone (CFA-stimulated rats [1]; [12]): NS | Mechanical Allodynia, change in sensitivity compared to CFA alone (CFA-stimulated rats [1]; [13]): + (+ = statistically significant change in sensitivity compared to CFA alone, p < 0.05) | Mechanical Allodynia, change in sensitivity compared to CFA alone (CFA-stimulated rats [1]; [14]): NS | mechanical allodynia (paw withdrawal threshold) (CFA-stimulated rats [1]; 1 mg/kg, study day 7, post-dose testing): reduced mechanical allodynia | Thermal Hyperalgesia, change in sensitivity compared to CFA alone (CFA-stimulated rats [2]; [4]): NS | Thermal Hyperalgesia, change in sensitivity compared to CFA alone (CFA-stimulated rats [2]; [5]): NS | Thermal Hyperalgesia, change in sensitivity compared to CFA alone (CFA-stimulated rats [2]; [6]): NS | Thermal Hyperalgesia, change in sensitivity compared to CFA alone (CFA-stimulated rats [2]; [7]): NS | Thermal Hyperalgesia, change in sensitivity compared to CFA alone (CFA-stimulated rats [2]; [8]): NS | Thermal Hyperalgesia, change in sensitivity compared to CFA alone (CFA-stimulated rats [2]; [9]): NS | Thermal Hyperalgesia, change in sensitivity compared to CFA alone (CFA-stimulated rats [2]; [10]): NS | Thermal Hyperalgesia, change in sensitivity compared to CFA alone (CFA-stimulated rats [2]; [11]): NS | Thermal Hyperalgesia, change in sensitivity compared to CFA alone (CFA-stimulated rats [2]; [12]): + (+ = statistically significant change in sensitivity compared to CFA alone, p < 0.05) | Thermal Hyperalgesia, change in sensitivity compared to CFA alone (CFA-stimulated rats [2]; [13]): NS | Thermal Hyperalgesia, change in sensitivity compared to CFA alone (CFA-stimulated rats [2]; [14]): + (+ = statistically significant change in sensitivity compared to CFA alone, p < 0.05) | thermal sensitivity (paw withdrawal latency) (CFA-stimulated rats [2]; 1 mg/kg, day 3 and pre-dose testing on day 7): reduced thermal sensitivity | αSMA expression (MRC-5 cells; 1 uM, combined with 0.01 ng/ml HGF): significantly reduced αSMA | Significant reduction in αSMA via HTRF compared to TGFβ alone (MRC-5 cells; test compound 1 nM): NS | Significant reduction in αSMA via HTRF compared to TGFβ alone (MRC-5 cells; test compound 1 μM): ++++ (++++ = p < 0.001) | Thermal Hyperalgesia, change in sensitivity compared to CFA alone (CFA-stimulated rats [3]): NS

— US20250288587A1, “Methods of Treating Fibrosis” (Athira Pharma, Inc., priority 2022, published 2025)
